Source: US9598447B2, “Phosphorus-substituted quinoxaline-type piperidine compounds and uses thereof” (Purdue Pharma L.P., priority 2010, dated 2017)
Like-named read-outs stand apart in the source and are kept apart here.

Target: delta opioid receptor (Homo sapiens (Human), UniProt P41143)
Experiment: In vitro delta-opioid receptor binding assay ([3H]-Naltrindole displacement)
[1] = recombinant receptor expressed in CHO-K1 cells, read-out: Ki [Average ± Std Deviation] Opioid Receptor Delta

Sequence of delta opioid receptor (P41143 whole entry): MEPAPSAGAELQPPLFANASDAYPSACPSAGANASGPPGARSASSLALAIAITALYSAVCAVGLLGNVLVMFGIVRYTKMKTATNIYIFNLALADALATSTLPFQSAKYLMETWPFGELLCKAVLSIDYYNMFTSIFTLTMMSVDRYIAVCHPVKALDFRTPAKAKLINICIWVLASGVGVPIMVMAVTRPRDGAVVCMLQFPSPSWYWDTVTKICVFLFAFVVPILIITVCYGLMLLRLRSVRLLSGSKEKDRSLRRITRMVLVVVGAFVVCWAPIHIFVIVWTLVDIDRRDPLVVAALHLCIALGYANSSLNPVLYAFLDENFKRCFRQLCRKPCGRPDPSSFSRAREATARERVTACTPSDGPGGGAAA

| SMILES | Ki [1] | Ki |
| --- | --- | --- |
| O=c1c(P(=O)(O)O)nc2ccccc2n1[C@H]1C[C@H]2CC[C@@H](C1)N2C12CC3CC(CC1C3)C2 [BB, (4-((1R,3R,5S)-8-((2R,3as,5S,6aS)-octahydro-2,5-methanopentalen-3a-yl)-8-azabicyclo[3.2.1]octan-3-yl)-3-oxo-3,4-dihydroquinoxalin-2-yl)phosphonic acid] | > 20 µM | – |
| O=c1c(P(=O)(O)O)nc2ccccc2n1[C@H]1C[C@H]2CCC[C@@H](C1)N2C1CCCCCCC1 [DD, (4-((1R,3R,5S)-9-cyclooctyl-9-azabicyclo[3.3.1]nonan-3-yl)-3-oxo-3,4-dihydroquinoxalin-2-yl)phosphonic acid] | > 20 µM | – |
| O=C(NP(=O)(O)O)c1nc2ccccc2n([C@H]2C[C@H]3CCC[C@@H](C2)N3C2CCCCCCC2)c1=O [KK, (4-((1R,3R,5S)-9-cyclooctyl-9-azabicyclo[3.3.1]nonan-3-yl)-3-oxo-3,4-dihydroquinoxaline-2-carbonyl)phosphoramidic acid] | – | > 20 µM |
